Data: ChEMBL document CHEMBL4414546, “Identification of Narciclasine as an in Vitro Anti-Inflammatory Component of Cyrtanthus contractus by Correlation-Based Metabolomics” (2019)
Active and inactive are the calls of the source. The rule behind the calls is not given here.

Assays:
[1] = tested on: HUVEC; assay: Effect on TNF-alpha-induced NFkappaB nuclear translocation in HUVEC at 7.2 nM preincubated for 30 mins followed by TNF-alpha stimulation and measured after 30 mins by fluorescence microscopic analysis; type: cell-based; conditions: Homo sapiens
[2] = tested on: HUVEC; assay: Antiinflammatory activity in HUVEC assessed as reduction in TNF-alpha-induced E-selectin cell surface expression at 7.2 nM preincubated for 30 mins followed by TNF-alpha addition and measured after 4 hrs by ELISA; type: functional, cell-based; conditions: Homo sapiens
[3] = tested on: HUVEC; assay: Antiinflammatory activity in HUVEC assessed as reduction in TNF-alpha-induced ICAM1 cell surface expression at 7.2 nM preincubated for 30 mins followed by TNF-alpha stimulation and measured after 24 hrs by flow cytometry; type: functional, cell-based; conditions: Homo sapiens
[4] = tested on: HUVEC; assay: Antiinflammatory activity in TNF-alpha-induced HUVEC assessed as fold change in IkappaBalpha expression at 7.2 nM preincubated for 30 mins followed by addition and measured after 30 mins by immunoblotting analysis (reference value: 0.50); type: functional, Homo sapiens
[5] = tested on: HUVEC; assay: Antiinflammatory activity in HUVEC assessed as reduction in TNF-alpha-induced E-selectin expression at 7.2 nM preincubated for 30 mins followed by TNF-alpha stimulation and measured after 30 mins by immunoblotting analysis; type: functional, cell-based; conditions: Homo sapiens
[6] = tested on: HUVEC; assay: Antiinflammatory activity in TNF-alpha-induced HUVEC assessed as fold change in COX2 expression at 7.2 nM preincubated for 30 mins followed by addition and measured after 30 mins by immunoblotting analysis (reference value: 0.50); type: functional, Homo sapiens

In the case of O=C1N[C@@H]2C(=C[C@H](O)[C@@H](O)[C@H]2O)c2cc3c(c(O)c21)OCO3 [NARCICLASINE], the Activity [1] is reported as “inactive”, the inhibition [2] is reported as “Active” and the inhibition [3] is reported as “Active”. The “fold change (FC)” value [4] was 0.31, the inhibition [5] was “Active” and the “fold change (FC)” value [6] was 0.8.
